Laboratory results as given in ChEMBL document CHEMBL5532666 (J Med Chem, 2024).
The source made the active and inactive calls. The rule behind the calls is not given here.

What was measured:
HCT-116 [1] = experiment: Cell cycle arrest in human HCT-116 cells expressing […] assessed as G2/M phase cells at 1 uM incubated for 72 hrs by Hoechst33342 staining based analysis (reference value: 38%); assay type: functional
[2] = target: T1, Serine/threonine-protein kinase 24 (Homo sapiens, UniProt Q9Y6E0); experiment: Binding affinity to C-terminal full length human MST3 expressed in permeabilized HEK293T cells incubated for 2 hrs by NanoBRET assay; assay type: cell-based
Target sequence in this assay (Q9Y6E0 whole entry): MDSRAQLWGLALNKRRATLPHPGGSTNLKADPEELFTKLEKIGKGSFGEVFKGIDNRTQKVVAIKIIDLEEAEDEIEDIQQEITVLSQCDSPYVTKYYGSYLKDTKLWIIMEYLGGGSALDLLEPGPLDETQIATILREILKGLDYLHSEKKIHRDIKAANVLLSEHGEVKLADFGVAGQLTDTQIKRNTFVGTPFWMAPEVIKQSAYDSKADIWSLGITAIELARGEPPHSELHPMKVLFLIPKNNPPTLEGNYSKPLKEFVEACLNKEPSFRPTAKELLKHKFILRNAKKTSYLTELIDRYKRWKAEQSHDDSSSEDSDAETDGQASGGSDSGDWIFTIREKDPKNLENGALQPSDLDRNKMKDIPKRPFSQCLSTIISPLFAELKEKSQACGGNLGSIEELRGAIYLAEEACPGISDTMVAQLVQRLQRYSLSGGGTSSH

HCT-116 [3] = experiment: Cell cycle arrest in human HCT-116 cells expressing […] assessed as G1 phase cells at 1 uM incubated for 72 hrs by Hoechst33342 staining based analysis (reference value: 52%); assay type: functional
HCT-116 [4] = experiment: Cell cycle arrest in human HCT-116 cells expressing […] assessed as G2/M phase cells at 10 uM incubated for 72 hrs by Hoechst33342 staining based analysis (reference value: 38%); assay type: functional
LIM domain kinase 2 [5] = target: T2, LIM domain kinase 2 (Homo sapiens, UniProt P53671); experiment: Binding affinity to LIMK2 (unknown origin) expressed in permeabilized HEK293T cells incubated for 2 hrs by NanoBRET assay; assay type: cell-based
Target sequence in this assay (P53671 whole entry, the tested form may be a part): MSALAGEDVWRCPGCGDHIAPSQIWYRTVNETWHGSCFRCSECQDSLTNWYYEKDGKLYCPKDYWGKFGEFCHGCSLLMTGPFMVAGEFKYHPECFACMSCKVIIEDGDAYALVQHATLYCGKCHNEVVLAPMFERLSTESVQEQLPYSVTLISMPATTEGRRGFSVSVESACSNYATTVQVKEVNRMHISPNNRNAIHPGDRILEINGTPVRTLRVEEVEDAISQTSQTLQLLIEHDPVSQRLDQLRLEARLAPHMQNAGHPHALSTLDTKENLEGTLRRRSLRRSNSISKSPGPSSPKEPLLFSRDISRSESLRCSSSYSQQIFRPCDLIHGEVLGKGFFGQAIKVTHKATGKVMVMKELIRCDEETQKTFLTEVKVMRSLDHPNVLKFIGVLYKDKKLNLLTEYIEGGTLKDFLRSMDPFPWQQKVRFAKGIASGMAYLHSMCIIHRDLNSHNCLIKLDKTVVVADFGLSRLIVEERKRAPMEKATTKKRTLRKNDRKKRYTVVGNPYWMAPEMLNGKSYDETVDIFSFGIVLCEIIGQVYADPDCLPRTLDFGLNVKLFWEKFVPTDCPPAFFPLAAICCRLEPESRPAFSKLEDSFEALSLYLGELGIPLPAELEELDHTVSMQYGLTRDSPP

LIM domain kinase 2 [6] = target: T2, LIM domain kinase 2; experiment: Binding affinity to LIMK2 (unknown origin) expressed in intact HEK293T cells incubated for 2 hrs by NanoBRET assay; assay type: cell-based
Target sequence in this assay (P53671 whole entry, the tested form may be a part): as above

[7] = target: T3, Serine/threonine-protein kinase 26 (Homo sapiens, UniProt Q9P289); details: dose 10.0 µM
Target sequence in this assay (Q9P289 2-416 limits assumed): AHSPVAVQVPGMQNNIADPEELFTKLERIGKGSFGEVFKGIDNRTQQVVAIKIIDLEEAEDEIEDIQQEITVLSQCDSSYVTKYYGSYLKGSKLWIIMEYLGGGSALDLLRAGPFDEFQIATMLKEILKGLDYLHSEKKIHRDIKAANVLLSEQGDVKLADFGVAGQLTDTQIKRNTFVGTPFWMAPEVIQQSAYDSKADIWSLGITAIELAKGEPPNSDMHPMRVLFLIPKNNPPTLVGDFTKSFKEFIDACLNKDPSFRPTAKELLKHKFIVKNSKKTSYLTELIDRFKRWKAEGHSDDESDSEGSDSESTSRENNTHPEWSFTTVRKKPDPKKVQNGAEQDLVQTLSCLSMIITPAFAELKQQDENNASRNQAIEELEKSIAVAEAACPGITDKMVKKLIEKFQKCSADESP
Description: Binding affinity to recombinant MST4 (unknown origin) kinase domain assessed as thermal stabilization by measuring change in melting temperature at 10 uM by DSF analysis

[8] = target: T1, Serine/threonine-protein kinase 24; details: dose 10.0 µM
Target sequence in this assay (Q9Y6E0 whole entry, looked up): as the sequence (Q9Y6E0 whole entry) above
Description: Binding affinity to recombinant MST3 (unknown origin) kinase domain assessed as thermal stabilization by measuring change in melting temperature at 10 uM by DSF analysis

HCT-116 [9] = experiment: Cell cycle arrest in human HCT-116 cells expressing […] assessed as G1 phase cells at 10 uM incubated for 72 hrs by Hoechst33342 staining based analysis (reference value: 52%); assay type: functional
LIM domain kinase 1 = LIM domain kinase 1 (Homo sapiens, UniProt P53667); experiment: Binding affinity to LIMK1 (unknown origin) expressed in permeabilized HEK293T cells incubated for 2 hrs by NanoBRET assay; assay type: cell-based
LIM domain kinase 2 [10] = target: T2, LIM domain kinase 2; experiment: Inhibition of wildtype LIMK2 (unknown origin) assessed as residual activity at 1 uM relative to control
Target sequence in this assay (P53671 whole entry, looked up, the tested form may be a part): as the sequence (P53671 whole entry, the tested form may be a part) above

[11] = target: T1, Serine/threonine-protein kinase 24; experiment: Binding affinity to C-terminal full length human MST3 expressed in intact HEK293T cells incubated for 2 hrs by NanoBRET assay; assay type: cell-based
Target sequence in this assay (Q9Y6E0 whole entry): as the sequence (Q9Y6E0 whole entry) above

[12] = target: T3, Serine/threonine-protein kinase 26; experiment: Binding affinity to N-terminal 6His-tagged TEV fused MST4 (unknown origin) expressed in Escherichia coli BL21 (DE3) cells assessed as offset in binding entropy change by ITC analysis
Target sequence in this assay (Q9P289 2-416 limits assumed): as the sequence (Q9P289 2-416 limits assumed) above

HCT-116 [13] = experiment: Cell cycle arrest in human HCT-116 cells expressing […] assessed as S phase cells at 10 uM incubated for 72 hrs by Hoechst33342 staining based analysis relative to control; assay type: functional
[14] = Toxicity in human HCT-116 cells expressing FUCCI assessed as reduction in normalized cell count at 10 uM measured upto 80 hrs by Hoechst33342 staining based analysis; details: hct-116, 80 h
[15] = target: T3, Serine/threonine-protein kinase 26; experiment: Inhibition of wildtype MST4 (unknown origin) assessed as residual activity at 1 uM relative to control
Target sequence in this assay (Q9P289 2-416 limits assumed): as above

[16] = target: Maternal embryonic leucine zipper kinase (Homo sapiens) (UniProt Q14680); experiment: Binding affinity to MELK (unknown origin) assessed as thermal stabilization by measuring change in melting temperature by DSF analysis
[17] = target: T3, Serine/threonine-protein kinase 26; experiment: Binding affinity to C-terminal full length human MST4 expressed in intact HEK293T cells incubated for 2 hrs by NanoBRET assay; assay type: cell-based
Target sequence in this assay (Q9P289 whole entry): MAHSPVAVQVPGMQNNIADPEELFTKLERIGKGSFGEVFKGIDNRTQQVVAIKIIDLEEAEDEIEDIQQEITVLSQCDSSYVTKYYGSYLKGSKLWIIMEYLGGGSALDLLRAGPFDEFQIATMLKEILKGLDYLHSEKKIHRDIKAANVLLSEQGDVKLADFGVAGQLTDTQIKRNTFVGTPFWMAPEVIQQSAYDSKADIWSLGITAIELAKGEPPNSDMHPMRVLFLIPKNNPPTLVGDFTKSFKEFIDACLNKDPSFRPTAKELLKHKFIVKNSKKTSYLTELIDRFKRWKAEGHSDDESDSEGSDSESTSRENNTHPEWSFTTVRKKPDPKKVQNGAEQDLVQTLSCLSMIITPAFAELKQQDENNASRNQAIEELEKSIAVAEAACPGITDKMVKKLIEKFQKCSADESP

[18] = Toxicity in human HCT-116 cells expressing FUCCI assessed as reduction in cell viability at 1 uM measured after 48 hrs by Hoechst33342 staining based analysis; details: hct-116, 48 h
[19] = target: T4, Serine/threonine-protein kinase 4 (Homo sapiens) (UniProt Q13043); details: dose 10.0 µM
T4 sequence (whole entry): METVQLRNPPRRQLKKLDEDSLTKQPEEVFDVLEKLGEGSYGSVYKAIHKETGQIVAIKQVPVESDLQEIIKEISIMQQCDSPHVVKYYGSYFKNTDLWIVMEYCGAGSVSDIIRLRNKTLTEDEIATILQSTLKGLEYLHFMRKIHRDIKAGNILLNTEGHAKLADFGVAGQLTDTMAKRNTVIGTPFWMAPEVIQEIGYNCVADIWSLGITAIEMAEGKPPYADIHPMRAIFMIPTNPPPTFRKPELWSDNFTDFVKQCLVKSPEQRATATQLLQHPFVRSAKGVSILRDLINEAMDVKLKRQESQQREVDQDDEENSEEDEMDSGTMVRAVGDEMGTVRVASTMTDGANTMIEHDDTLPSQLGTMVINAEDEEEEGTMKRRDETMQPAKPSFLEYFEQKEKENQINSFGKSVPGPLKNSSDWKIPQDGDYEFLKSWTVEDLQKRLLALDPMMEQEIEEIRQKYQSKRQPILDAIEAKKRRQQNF
Description: Binding affinity to recombinant MST1 (unknown origin) kinase domain assessed as thermal stabilization by measuring change in melting temperature at 10 uM by DSF analysis

Chain of LIM domain kinase 1 (P53667 whole entry, the tested form may be a part): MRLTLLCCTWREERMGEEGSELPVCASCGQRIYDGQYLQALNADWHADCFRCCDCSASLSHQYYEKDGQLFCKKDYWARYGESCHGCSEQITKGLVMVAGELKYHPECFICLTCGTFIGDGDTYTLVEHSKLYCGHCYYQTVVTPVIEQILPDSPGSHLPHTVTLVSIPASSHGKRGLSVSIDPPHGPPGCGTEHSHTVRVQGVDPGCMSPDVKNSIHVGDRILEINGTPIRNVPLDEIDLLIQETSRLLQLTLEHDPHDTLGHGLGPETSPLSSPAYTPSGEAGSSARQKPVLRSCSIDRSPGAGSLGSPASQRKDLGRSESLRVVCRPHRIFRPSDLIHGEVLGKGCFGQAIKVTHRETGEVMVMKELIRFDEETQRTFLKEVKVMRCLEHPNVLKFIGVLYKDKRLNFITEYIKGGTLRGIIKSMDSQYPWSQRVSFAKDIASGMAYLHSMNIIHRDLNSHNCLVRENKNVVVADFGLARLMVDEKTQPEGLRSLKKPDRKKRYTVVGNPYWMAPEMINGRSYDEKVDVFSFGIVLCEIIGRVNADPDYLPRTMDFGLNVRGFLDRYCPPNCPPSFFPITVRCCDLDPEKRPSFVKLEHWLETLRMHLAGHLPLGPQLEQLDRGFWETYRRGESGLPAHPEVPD
Chain of Maternal embryonic leucine zipper kinase (Homo sapiens) (Q14680 whole entry, looked up): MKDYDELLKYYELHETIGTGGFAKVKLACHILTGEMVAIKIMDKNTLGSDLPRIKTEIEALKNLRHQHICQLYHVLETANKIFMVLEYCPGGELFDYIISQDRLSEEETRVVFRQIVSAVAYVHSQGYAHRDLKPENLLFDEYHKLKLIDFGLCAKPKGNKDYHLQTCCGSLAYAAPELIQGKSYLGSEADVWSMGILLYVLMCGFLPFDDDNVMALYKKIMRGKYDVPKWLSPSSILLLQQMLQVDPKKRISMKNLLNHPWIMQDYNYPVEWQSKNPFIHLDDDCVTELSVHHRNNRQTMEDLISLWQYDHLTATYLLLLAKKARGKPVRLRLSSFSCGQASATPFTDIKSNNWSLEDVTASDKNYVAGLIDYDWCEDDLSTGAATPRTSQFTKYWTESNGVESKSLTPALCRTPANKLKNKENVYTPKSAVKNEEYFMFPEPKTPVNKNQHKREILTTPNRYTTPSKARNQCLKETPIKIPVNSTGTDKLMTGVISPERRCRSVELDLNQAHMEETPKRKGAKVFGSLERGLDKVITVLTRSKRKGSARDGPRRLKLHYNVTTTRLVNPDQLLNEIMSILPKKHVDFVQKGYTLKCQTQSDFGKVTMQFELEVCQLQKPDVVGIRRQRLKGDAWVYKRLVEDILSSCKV

## O=C1NCCCCCNc2nc(c3ccccc3n2)Nc2cc1[nH]n2
HCT-116 [1]
  Activity: 33%
[2]
  EC50: 80 nM
HCT-116 [3]
  Activity: 57%
HCT-116 [4]
  Activity: 33%
LIM domain kinase 2 [5]
  EC50: 1000 nM
LIM domain kinase 2 [6]
  EC50: 1780 nM
[7]
  ΔTm: 7.4 °C
[8]
  ΔTm: 7.5 °C
HCT-116 [9]
  Activity: 40%
LIM domain kinase 1
  EC50: 2480 nM
LIM domain kinase 2 [10]
  Activity: 38.2%
[11]
  EC50: 110 nM
[12]
  Activity: Active
HCT-116 [13]
  Activity: 27%
[14]
  Activity: Toxic
[15]
  Activity: 18%
[16]
  ΔTm: 5.1 °C
[17]
  EC50: 1430 nM
[18]
  Activity: Non-Toxic
[19]
  ΔTm: 1.4 °C
